Test [1] deals with Rattus norvegicus. Briefly: Compound was tested for analgesic activity by tail-flick assay in rat after subcutaneous administration. It is filed as functional. As to conditions: sc. For orientation: Hot-plate and tail-flick tests time the reaction to a heat stimulus.
The test system of test [2] is Mus musculus. Briefly: Compound was tested for analgesic activity by writhing assay in mouse after subcutaneous administration. As to conditions: sc. The class given is functional. A general note: In writhing tests, fewer writhes than in controls are read as antinociception.
Test [3] concerns Rattus norvegicus. Briefly: Compound was tested for narcotic antagonist activity determined using an intraperitoneal ED80 of morphine in rat tail-flick assay. As to conditions: ip. The class given is functional.
In test [4] the test system is Rattus norvegicus. In words: Compound was tested for analgesic activity by tail-flick assay in rat after subcutaneous administration; Inactive at 30 uM/Kg. The class given is functional, organism-based.
Test [5] has as its system Rattus norvegicus. In words: Compound was tested for analgesic activity by tail-flick assay in rat after subcutaneous administration; Inactive at 25 uM/Kg. It is filed as functional, organism-based.
The test system of test [6] is Mus musculus. Briefly: Compound was tested for analgesic activity by writhing assay in mouse after subcutaneous administration; Inactive at 32 uM/Kg. It is filed as functional, organism-based.
Test [7] has as its system Rattus norvegicus. In words: Compound was tested for analgesic activity by tail-flick assay in rat after subcutaneous administration; Inactive at 3 uM/Kg. It is filed as functional, organism-based.
In test [8] the test system is Mus musculus. Briefly: Compound was tested for analgesic activity by writhing assay in mouse after subcutaneous administration; Inactive at 10 uM/Kg. It is filed as functional, organism-based.
For test [9], the system named is Rattus norvegicus. Briefly: Compound was tested for narcotic antagonist activity determined using an intraperitoneal ED80 of morphine in rat tail-flick assay; Inactive at 50 uM/Kg. It is filed as functional, organism-based.
In test [10] the test system is Rattus norvegicus. Briefly: Compound was tested for narcotic antagonist activity determined using an intraperitoneal ED80 of morphine in rat tail-flick assay; Inactive at 55 uM/Kg. It is filed as functional, organism-based.
Test [11] deals with Rattus norvegicus. In words: Compound was tested for analgesic activity by tail-flick assay in rat after subcutaneous administration; Inactive at 32 uM/Kg. It is filed as functional, organism-based.
Test [12] has as its system Rattus norvegicus. Briefly: Compound was tested for narcotic antagonist activity determined using an intraperitoneal ED80 of morphine in rat tail-flick assay; Inactive at 25 uM/Kg. The class given is functional, organism-based.
Test [13] deals with Rattus norvegicus. In words: Compound was tested for analgesic activity by tail-flick assay in rat after subcutaneous administration; Inactive at 65 uM/Kg. It is filed as functional, organism-based.

Active and inactive are the calls of the source. The calls are words filed in the database; no cut-off is given here. A value given as a limit tells only on which side of the number the result lay.

Broadly, the ED50 is the dose that gives a 50% effect, or the effect in half of the subjects.

As to `COc1ccc2c3c1O[C@H]1C(=O)CC[C@H]4[C@@H](C2)N(C)CC[C@]314` [HYDROCODONE], the ED50 was found to be 5.2 µmol/kg in the test with Rattus norvegicus [1] and 2.4 µmol/kg in the test on Mus musculus [2].
As for `Oc1ccc2c(c1)[C@@]13CCCC[C@@]1(O)[C@@H](C2)N(CC1CCC1)CC3` [BUTORPHANOL], the ED50 in the test with Rattus norvegicus [3] worked out at 2 µmol/kg; with Mus musculus [2] it was 0.34 µmol/kg.
In the case of `COc1ccc2c3c1OC1C(=O)[C@@H]4C[C@@H]4C4C(C2)N(C)CCC314` (stereo partly specified), the figures for the ED50 in the test with Rattus norvegicus [1] and with Mus musculus [2] were 4.7 µmol/kg and 0.43 µmol/kg, respectively.
The like results for `COc1ccc2c3c1O[C@H]1[C@@H](O)C=C[C@H]4[C@@H](C2)N(C)CC[C@@]341` [CODEINE] were, in that order, 75.1 µmol/kg and 10.3 µmol/kg.
As to `COc1ccc2c3c1OC1C34CCN(C)C(C2)C4[C@H]2O[C@H]2[C@@]1(O)OC` (stereo partly specified), the ED50 entry in the test with Rattus norvegicus [4] was “inactive”. In the test on Mus musculus [2], this molecule displayed an ED50 of 18 µmol/kg.
Consider `COc1ccc2c3c1OC1C(=O)CC(SCCO)C4C(C2)N(CC2CC2)CCC314` (stereo unspecified), for which the ED50 was > 30 µmol/kg with Rattus norvegicus [3] and 3.4 µmol/kg in the test with Mus musculus [2].
On to `COc1ccc2c3c1O[C@H]1C(=O)CC(SCCO)C4C(C2)N(C)CCC341` (stereo partly specified), for which, in the test on Rattus norvegicus [5], the ED50 result was “inactive”. In addition, the ED50 in the test on Mus musculus [2] is > 25 µmol/kg.
Take `COc1ccc2c3c1O[C@H]1C(=O)CC(CCl)C4C(C2)N(C)CCC341` (stereo partly specified): the ED50 entry in the test on Rattus norvegicus [5] is “inactive”. The molecule also showed an ED50 with Mus musculus [2] of 12.2 µmol/kg.
Take `COc1ccc2c3c1O[C@H]1[C@@H](O)CC[C@H]4[C@@H](C2)N(C)CC[C@@]341` [DIHYDROCODEINE]: the ED50 is > 22 µmol/kg in the test with Rattus norvegicus [1] and 3.8 µmol/kg in the test on Mus musculus [2].
`COc1ccc2c3c1OC1C(=O)[C@@H]4O[C@@H]4C4C(C2)N(C)CCC314` (stereo partly specified): the ED50 in the test with Rattus norvegicus [1] is > 30 µmol/kg. Also, the ED50 result in the test on Mus musculus [6] was “inactive”.
For the molecule `COc1ccc2c3c1OC1C(=O)C=CC4C(C2)N(C)CCC314` (stereo unspecified), the ED50 entry with Rattus norvegicus [7] and with Mus musculus [8] was “inactive” each time.
Turning to `COc1ccc2c3c1OC1C(=O)[C@@H]4C[C@@H]4C4C(C2)N(CC2CCC2)CCC314` (stereo partly specified), the ED50 entry with Rattus norvegicus [9] was “inactive”. This molecule had an ED50 with Mus musculus [2] of 12.4 µmol/kg.
Regarding `CC(C)=CCN1CC[C@]2(C)c3cc(O)ccc3C[C@H]1[C@H]2C` [(+)-PENTAZOCINE], the results for the ED50 with Rattus norvegicus [3] and with Mus musculus [2] were 36.4 µmol/kg and 13 µmol/kg, respectively.
As to `COc1ccc2c3c1OC1[C@@H](O)[C@@H]4C[C@@H]4C4C(C2)N(CC2CCC2)CCC314` (stereo partly specified), in the test with Mus musculus [2], the ED50 was > 55 µmol/kg. In the test with Rattus norvegicus [10], the ED50 entry was “inactive”.
In the case of `COc1ccc2c3c1OC1C(=O)[C@@H]4C[C@@H]4C4C(C2)N(CC2CC2)CCC314` (stereo partly specified), the ED50 in the test on Rattus norvegicus [3] turned out to be 8.7 µmol/kg; with Mus musculus [2], 9 µmol/kg.
For `COc1ccc2c3c1OC1[C@@H](O)[C@@H]4O[C@@H]4C4C(C2)N(C)CCC314` (stereo partly specified), the ED50 result in the test on Mus musculus [6] and in the test on Rattus norvegicus [11] was “inactive” each time.
Consider `COc1ccc2c3c1O[C@H]1C(=O)C=CC4[C@@H](C2)N(CC2CCC2)CC[C@@]341` (stereo partly specified), for which the ED50 result with Rattus norvegicus [12] is “inactive”. In the test with Mus musculus [2], this molecule returned an ED50 of 20.3 µmol/kg.
Consider `COc1ccc2c3c1OC1[C@@H](O)[C@@H]4C[C@@H]4C4C(C2)N(C)CCC314` (stereo partly specified), for which the 50% effect level in the test on Mus musculus [2] (ED50) was put at a dose of 1.79 µmol/kg. In addition, in the test with Rattus norvegicus [13], the ED50 result is “inactive”.

For the origin of these results see ChEMBL document CHEMBL1121640, “Analgesic narcotic antagonists. 6. 7 beta, 8 beta-Methano- and 7 beta, 8 beta-epoxydihydrocodeinone” (1981).
